Assays:
[1] = test system: GFAP and Iba-1 (microglial/astrocytes phenotype); assay: GFAP and Iba-1 mRNA in OHSC (RT-qPCR); assay type: cell-based, mice; conditions: 50 μM, 10 days
Description: FIG. 9. Plots illustrating the effect of Aftin-5 on relative mRNA expression levels of GFAP (left panel) and Iba-1 (right panel) in organotypic hippocampal slice cultures (OHSC). OHSC culture media […] were replaced by incubation medium containing Aftin-5 (50 μM; A50) or vehicle (0.1% DMSO; Veh). 10 days later, total mRNA in lysate was isolated and purified, cDNAs were then synthesized from […] of total mRNA. cDNA were amplified by quantitative RT-PCR and the relative expression of specific genes was normalized to the housekeeping gene HPRT1 (2^−ΔCt). Mann-Whitney tests were performed and show no significant differences between Aftin-5 and control conditions. Data expressed as means+/−SEM from q=3 independent experiments with n=4-6 inserts/condition and 10 slices/insert. […]
(§1) The impact of Aftin-5 on gene expression of different biomarkers was determined by measuring mRNA levels of selected BDNF, CREB, PS95, INS Receptor/IGF-1 receptor, IL-1β, IL-6 in OHSC treated chronically with Aftin-5 or in a total brain from mice exposed to Aftin-5 at either 8 or 30 mg/Kg. […] Threshold cycles (Ct) of target gene and cyclophilin A (Ppia−control housekeeping gene) were recorded and gene expression was calculated as 2^−ΔΔCt(ΔΔCt=ΔCttreated−ΔCtcontrol, ΔCt=Cttarget−CtPpia). […]

InsR (insulin-receptor) = assay: Insulin receptor mRNA in OHSC (RT-qPCR); assay type: cell-based, mice; conditions: 50 μM for 10 days, P<0.05
Description: FIG. 12. Plots illustrating the effect of Aftin-5 on relative mRNA expression levels of murine insulin-like growth factor-1 receptor (IGF1-R; (A)) and murine insulin receptor (Insr; (B)) in organotypic hippocampal slice cultures (OHSC). OHSC culture media of OHSC were replaced by incubation medium containing Aftin-5 (50 μM; A50) or vehicle (0.1% DMSO; Veh). 10 days later, total mRNA in lysate was isolated and purified, cDNAs were then synthesized from […] of total mRNA. cDNAs were amplified by quantitative RT-PCR and the relative expression of specific genes was normalized to the housekeeping gene HPRT1 (2^−ΔCt) Mann-Whitney tests were performed and *p<0.05 indicates significant differences between Aftin-5 and control conditions. Data expressed as means+/−SEM from q=3 independent experiments with n=4-6 inserts/condition and 10 slices/insert. […]
as §1

PSD95 = PSD95 mRNA in OHSC (RT-qPCR); assay type: cell-based; conditions: OHSCs from WT mice, 50 μM, 10 days
Description: FIG. 15. Plots illustrating the effect of Aftin-5 on relative mRNA expression levels of Long Term Potentialisation (LTP) biomarkers, i.e CREB (A), PSD95 (B) and BDNF (C) in C57B16J OHSC mice treated chronically with Aftin-5. OHSC culture media of OHSC were replaced by incubation medium containing Aftin-5 (50 μM; A50) or vehicle (0.1% DMSO; Veh). 10 days later, total mRNA in lysate was isolated and purified, cDNAs were then synthesized from […] of total mRNA. cDNAs were amplified by quantitative RT-PCR and the relative expression of specific genes was normalized to the housekeeping gene HPRT1 (2^—ΔCt). […] Data expressed as means+/−SEM from q=3 independent experiments with n=4-6 inserts/condition and 10 slices/insert. […]
The impact of Aftin-5 on gene expression of different biomarkers was determined by measuring mRNA levels of selected BDNF, CREB, PS95, INS Receptor/IGF-1 receptor, IL-1β, IL-6 in OHSC treated chronically with Aftin-5 or in a total brain from mice exposed to Aftin-5 at either 8 or 30 mg/Kg. […] RNA concentration was measured spectrophotometrically at 260 nm in a NanoDrop 2000c (Thermo Scientific, Villebon-sur-Yvette, France) (sample A260 nm/A280 nm ratios over 1.8 indicated reduced genomic DNA contamination). cDNAs were synthesized from 0.5 μg of total RNA with RT^2 First Strand kit (Qiagen, Courtaboeuf, France) according to the manufacturer's protocol and stored at −80° C. […]

CREB, BDNF, PSD95 = assay: mRNA of CREB, BDNF, PSD95 in brains of chronically treated WT mice; assay type: in vivo; conditions: brains from WT mice treated chronically
Description: The impact of Aftin-5 on gene expression of different biomarkers was determined by measuring mRNA levels of selected BDNF, CREB, PS95, INS Receptor/IGF-1 receptor, IL-1β, IL-6 in OHSC treated chronically with Aftin-5 or in a total brain from mice exposed to Aftin-5 at either 8 or 30 mg/Kg. Total RNA was extracted with TRIzol@ reagent and purified on RNeasy® minikit columns (Qiagen, Courtaboeuf, France). Briefly, cells were lysed with 0.5 mL of TRIzol@ reagent by pipetting. After addition of 100 μL of chloroform, mixtures were centrifuged at 10000 g for 15 min at 4° C., supernatants mixed with 600 μL of 70% ethanol and loaded onto RNeasy® columns. Total RNA was washed and eluted with RNase-free water according to manufacturer's protocol and stored at −80° C. RNA concentration was measured spectrophotometrically at 260 nm in a NanoDrop 2000c (Thermo Scientific, Villebon-sur-Yvette, France) (sample A260 nm/A280 nm ratios over 1.8 indicated reduced genomic DNA contamination). cDNAs were synthesized from 0.5 μg of total RNA with RT^2 First Strand kit (Qiagen, Courtaboeuf, France) according to the manufacturer's protocol and stored at −80° C. […] Threshold cycles (Ct) of target gene and cyclophilin A (Ppia−control housekeeping gene) were recorded and gene expression was calculated as 2^−ΔΔCt(ΔΔCt=ΔCttreated−ΔCtcontrol, ΔCt=Cttarget−CtPpia). […]

IL-6 cytokine = assay: Secreted IL-6 in LPS-treated human primary glial cells (MSD ELISA); assay type: cell-based; conditions: LPS 6 h, then purine derivative 10 μM for 18 h
Description: For assessing the cytokine production, human primary glial cells were grown until confluent on coated collagen 12-well plates. Cells were serum-starved in glial serum-free medium for 2 h and treated with LPS for 6 h before treatment with purine derivatives (10 μM) for an additional 18 h. Supernatants were harvested and secreted IL-6 cytokine was measured by ELISA by the mean of the Meso Scale Discovery (MSD) technology. Briefly, a 96-well plate having 1 spot pre-coated with the corresponding antibody is provided by MSD Technology. Before adding the samples, a first saturation step is required. Once the plate is saturated and washed, 25 μL of sample (or calibrators) per well are loaded and incubated for 1 hour. Then the plate is washed and incubated with 25 μL of the Detection Antibody solution (MSD SULFO-TAG) for 1 hour. At the end of the incubation, the plate is washed and then a chemical solution (Read buffer 1×) is added allowing electrochemiluminescence. After a short incubation (5 min) at room temperature, the plate is read on the QUICK Plex SQ120. The instrument measures the intensity of the light electrochemiluminescence.

InsR-mRNA (InsR (insulin-receptor)): increased dramatically
Structure (SMILES): CC[C@H](CO)Nc1nc(N(C)c2ccccc2)c2ncn(C(C)C)c2n1 [Aftin-5]
microglial/astrocytes phenotype (GFAP, Iba-1 mRNA) [1]: does not affect
PSD95 mRNA (PSD95): transcriptional upregulation
mRNA for CREB, BDNF as well as for PSD95 in brain (CREB, BDNF, PSD95): high mRNA
Anti-inflammatory Compounds (secreted IL-6) (IL-6 cytokine): +(>1 μM) (“+” means that the tested compound shows an anti-inflammatory and/or attenuation of Tau's phosphorylation property with a concentration higher than 1 μM)
